Measured values as given in US11690887B2, “Composition for ameliorating psoriasis symptoms containing extract of Dianthus superbus L” (KOREA INSTITUTE OF SCIENCE AND TECHNOLOGY, priority 2020, dated 2023).

Legend:
[1] = system: psoriasis caused by imiquimod; experiment: Epithelial thickness of back skin by H&E staining in imiquimod-induced psoriasis mice; format: in vivo, Balb/c mice; conditions: after treatment for a week, skin application, compared to the IMQ group
Source text: (§1) 6-week-old male Balb/c mice (Kangwon Life Science, Korea) were purchased and acclimated for a week, and psoriasis was induced using 5% imiquimod (Donga ST, Korea). FIG. 1 is a schematic experimental scheme of an animal model. Anti-psoriatic efficacy was investigated using a total of 20 animal models including 5 animals per experimental group.
(§2) In order to determine the effect of the extract of Dianthus superbus L. on psoriasis caused by imiquimod, the experimental animals of Section 2-1 were used. The following four experimental groups were constructed and five animals were randomly assigned to each group:
(§3) The experiment was conducted by inducing psoriasis with IMQ cream and then performing daily application in the amount shown in FIG. 2 to the experimental group and the DEX group. FIG. 3 is an image showing the treatment group for 7 days compared to the psoriasis-induced model as the animal experimental model.
After treatment for a week, the back skin tissue was removed from each animal, and then a paraffin block was prepared. The paraffin block was cut to 5 μm to prepare a slide sample, and then the change in the thickness of the skin tissue was measured through H&E staining.

[2] = system: filaggrin, loricrin, keratin 1 and keratin 14; experiment: Biomarkers for epithelial tissue damage in back skin by immunofluorescence in imiquimod-induced psoriasis mice; format: in vivo, Balb/c mice; conditions: after treatment for a week, versus IMQ group
Source text: as §1, §2, §3
After treatment for a week, back skin tissue was removed from each animal and a paraffin block was then prepared. A paraffin block was cut to 5 μm to prepare a slide sample, and then the change in biomarkers for epithelial tissue damage due to psoriasis was measured through immunofluorescence.

C[C@@H]1C[C@H]2[C@@H]3CCC4=CC(=O)C=C[C@]4(C)[C@@]3(F)[C@@H](O)C[C@]2(C)[C@@]1(O)C(=O)CO [DEX, dexamethasone]
thickness of the epithelial layer [1]: decreased thickness | expression level of filaggrin [2]: increased | expression level of keratin 1 [2]: increased | expression level of keratin 14 [2]: increased | expression level of loricrin [2]: increased
